Experimental data reported in US10533012B2, “(R)-pirlindole and its pharmaceutically acceptable salts for use in medicine” (TECNIMEDE SOCIEDADE TECNICO-MEDICINAL S.A., priority 2014, dated 2020).

Target: T1, human α2A adrenergic receptor (Homo sapiens, UniProt P08913)
T1 construct: expressed in transfected cells; host or cells: CHO (Chinese hamster ovary) cells
T1 sequence (P08913 1-465): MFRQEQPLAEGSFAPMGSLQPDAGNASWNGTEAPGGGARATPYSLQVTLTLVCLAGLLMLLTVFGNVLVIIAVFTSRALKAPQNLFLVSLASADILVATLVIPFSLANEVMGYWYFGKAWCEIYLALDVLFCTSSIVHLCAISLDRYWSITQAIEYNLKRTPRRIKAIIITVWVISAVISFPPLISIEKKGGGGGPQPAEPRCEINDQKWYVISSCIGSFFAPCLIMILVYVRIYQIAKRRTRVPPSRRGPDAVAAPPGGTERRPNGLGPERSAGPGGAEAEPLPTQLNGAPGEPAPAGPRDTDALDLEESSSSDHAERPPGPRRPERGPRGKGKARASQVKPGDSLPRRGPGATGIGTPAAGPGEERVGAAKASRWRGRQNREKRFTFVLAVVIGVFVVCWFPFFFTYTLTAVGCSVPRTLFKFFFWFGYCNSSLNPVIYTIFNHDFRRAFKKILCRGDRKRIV
Assay: functional α2A adrenergic receptor antagonism assay in CHO cells (morphological response, versus agonist UK-14304)
Format: cell-based
Details: for inhibition at 10 µM: CHO, 100 minus % maximum agonist activity; for % Maximum Agonist Activity (percentage of maximum agonist activity induced by UK-14304): CHO cells expressing human α2A receptor, reading 6 minutes after addition
Experimental: The functional α2A adrenergic receptor antagonism assay was carried out in a platform in which the morphological response of CHO (Chinese hamster ovary) cells expressing α2A receptors was assessed. The functional assay was performed using as test items the (R)-pirlindole and the (rac)-pirlindole.
The CHO cells, expressing the human α2A adrenergic receptor were plated the day before the experiment in an adequate culture medium. The compounds were added to the wells and readings were taken 6 minutes later. Responses from the samples were compared to control responses to assess agonist or antagonist activity. The percentage of maximal activity (% Maximum Activity) translates the percentage of agonist activity induced by the α2A agonist, UK-14304 (5-Bromo-N-(2-imidazolin-2-yl)-6-quinoxalinamine, 5-Bromo-N-(4,5-dihydro-1H-imidazol-2-yl)-6-quinoxalinamine, brimonidine) commercialized by the company Sigma-Aldrich.

| Compound | antagonist activity on α2A adrenergic receptors, times less than (R)-pirlindole (10 μM, ratio of inhibition versus (R)-pirlindole) [times] | inhibition at 10 µM (test compound 10 μM) [%] | % Maximum Agonist Activity (percentage of maximum agonist activity induced by UK-14304) (test compound 1 μM) [%] | % Maximum Agonist Activity (percentage of maximum agonist activity induced by UK-14304) (test compound 5 μM) [%] | % Maximum Agonist Activity (percentage of maximum agonist activity induced by UK-14304) (test compound 10 μM) [%] |
| --- | --- | --- | --- | --- | --- |
| Cc1ccc2c(c1)c1c3n2CCNC3CCC1 (racemic) [(rac)-pirlindole, 2,3,3a,4,5,6-hexahydro-8 methyl-1H-pyrazino [3,2,1-j, k] carbazole] | ~4 | 11 | 98.47 | 96.50 | 89.02 |
| Cc1ccc2c(c1)c1c3n2CCN[C@@H]3CCC1 [(R)-pirlindole] | – | 40.3 | 107.76 | 87.37 | 59.72 |
